Laboratory results published in patent publication US20240374535A1, “COMPOSITIONS AND METHODS FOR TREATING BIOFILM DISORDERS AND INFECTIONS” (AHV International B.V., priority 2021, published 2024).

Tests used:
[1] = test system: Staphylococcus epidermis ATCC 35984; test: MIC assay (planktonic growth inhibition, OD600); format: cell-based, S. epidermidis; conditions: 24 h at 37° C.
Summary of the method: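 Broth microdilution in MHB-II, two-fold series from 8 mM stock solution (Tween 80/DMSO co-diluted, 2.5% in top well). Inoculum from overnight TSA colonies adjusted to OD600 0.0008 (~10^6 CFU/mL); 24 h at 37° C., growth read as OD600; three independent experiments.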

[2] = test system: Staphylococcus epidermis ATCC 35984 biofilm; test: MBIC assay (biofilm inhibition, crystal violet); format: cell-based, S. epidermidis; conditions: 48 h incubation, absorbance 540 nm
Experimental: (§1) The exact weighed amount was noted and the volume of solvent to reach a 80 mM dilution calculated. Half of the volume was added first, by adding Tween 80. In a second step, the other half of the volume DMSO was added and the closed tube inverted 5-10 times and then vortexed very thoroughly for at least 30 seconds. If after this procedure unsolved material was still visible, the tube was placed in a shaker at 37° C. at 150 rpm for at least 30 minutes. […] For the MBEC assay (method 1.3) the solution needs to be diluted to a final concentration of 2 mM in 0.9% saline solution and then further diluted to 1 mM, 0.5 mM, 0.25 mM and 0.125 mM in saline. Those dilutions were added as treatment to the 96 well plates with the grown biofilm (see method 3).
(§2) Frozen aliquots of Staphylococcus epidermis ATCC 35984 and Pseudomonas aeruginosa ATCC 27853 were used to inoculate a tryptic soy agar (TSA) plate and were incubated overnight at 37° C. After incubation 3-5 well-isolated colonies with the same morphology were selected from the TSA plate and resuspended in 2 mL 0.9% saline solution with 3-6 glass beads and vortexed. The optical density of the bacterial suspension was measured at 600 nm (OD600) with a spectrophotometer (Evolution™ 201/220 UV-Visible Spectrophotometer, Thermo Fisher Scientific) and diluted to an OD600 of 0.2. The MBIC assay was performed in a 96-microtiter plate. 50 μL of TSB was added into columns 2-11, and 100 μL to column 12 for sterility control. 100 μL of the 8 mM test compound solution (method 1) was added to column 1. A two-fold dilution series of the solution in TSB was achieved by resuspending 50 μL of the 8 mM solution from column 1 in column 2. This step was repeated until column 10. The respective concentration of Tween 80 and DMSO in column 1 is at 2.5%, which is two-fold diluted throughout the plate. 50 μL of the bacterial suspension was added to column 1-11. The microtiter plates were sealed with adhesive polyethylene film for sealing microplates (Diversified Biotech) and incubated for 48 h at 37° C. After incubation the supernatant is carefully removed and the well with the biofilm washed for one time with 100 μL 0.9% saline solution. 100 μL 0.1 M HCl was added and incubated for 1 h at room temperature to fix the biofilm. After incubation the HCl was removed and 100 μL crystal violet (0.1% v/v in water) was added and incubated for 30 min at room temperature. The unbound crystal violet was removed and the wells washed one time with 100 μL demineralized water. 100 μL 30% acetic acid was added and incubated for 1 h at 37° C. and 150 rpm. The solution was resuspended and transferred to a flat-bottom 96-well plate and the absorbance measured at 540 nm with the spectrophotometer. This assay was repeated two times in two independent experiments.

[3] = test system: Pseudomonas aeruginosa ATCC 27853 biofilm; test: MBIC assay (biofilm inhibition, crystal violet); format: cell-based, P. aeruginosa; conditions: 48 h incubation, absorbance 540 nm
Experimental: as §1, §2

[4] = test system: cows with a SCC of more as 250.000 cells/ml; test: In vivo mastitis test: somatic cell count (SCC) in milk after a single oral tablet; set-up: species or system cow; conditions: single oral tablet (10 g), 60 days, FIG. 1
Experimental: Experiments were performed to examine the effect of compounds on the cell count or somatic cell count (SCC) in milk.
Somatic cell counts (SCC) is related to the amount of pathogens that are in the quarter visible for the immune system. The cell count of each cow was measured with the milk production registration (MPR). This MPR is done periodically every 30-40 days at all farms. The Somatic Cell Count (SCC) is a main indicator of milk quality. The majority of somatic cells are leukocytes (white blood cells)—which become present in increasing numbers in milk usually as an immune response to a mastitis-causing pathogen—and a small number of epithelial cells, which are milk-producing cells shed from inside of the udder when an infection occurs.
The SCC data was extracted from milk production registrations (MPRs). MPRs are databases showing all details (e.g. SCC) of the produced milk per individual cow. MPRs of the selected farms were available periodically. SCC is quantified as the number of cells per ml of milk. In general terms: an individual cow with a value for SCC of 100,000 or less indicates an ‘uninfected’ cow and there were no significant production losses due to subclinical mastitis. A threshold SCC above 250,000 indicates infection and counts between 100,000 to 250,000 indicate a high risk of infection.
The experiments were performed on a farm with 90 cows. Examination was performed on cell count with the above described tablets during 60 days.
Cows with a SCC of more as 250.000 cells/ml before treatment were selected for administration of a single tablet.

| IC50 ([1]; minimal concentration reducing final OD600 by 50%, read-out: S. epidermidis MIC50) | IC90 ([1]; minimal concentration reducing final OD600 by 90%, read-out: S. epidermidis MIC90) | SMILES | S. epidermidis MIC50 ([1]; minimal concentration reducing final OD600 by 50%) | S. epidermidis MIC90 ([1]; minimal concentration reducing final OD600 by 90%) | S. epidermidis MBIC90 [2] | P. aeruginosa MBIC90 [3] | somatic cell count (SCC) of milk [4] |
| --- | --- | --- | --- | --- | --- | --- | --- |
| – | – | CSS(C)(=O)=O [Di-methyl thiosulfonate, methyl methane thiosulfonate] | 250 µM | 250 µM | >4 mM | 4 mM | significantly decreased |
| 250 µM | 500 µM | CCCS[S+]([O-])CCC (stereo not shown) [Di-n-propyl thiosulfinate, S-propyl propane-1-sulfinothioate] | – | – | >4 mM | 2 mM | significantly decreased |
